Assay results from US4593090A, “Novel nitrosourea compounds, method for preparing same, and pharmaceutical composition containing same” (Gogo Kimura, priority 1981, dated 1986).
Read-outs that look alike come from different tables or passages of the source.

Assays:
Leukemia L1210 [1] = experiment: Activity against Leukemia L1210, oral, increase in life span of mice; format: in vivo, female mice (BDF1 family); settings: for ED (maximum ILS) / ED30: Mus musculus, L1210, oral once a day for 5 successive days; for ED (maximum ILS): daily dosage giving maximum increase of life span, read-out: O.D. (optimum dosage); for ED30: daily dosage increasing average survival days by 30%, read-out: ILS30; for Survivors after 60 days / Max. ILS % / Therapeutic ratio TR: oral; for Survivors after 60 days: 6-membered group; for Max. ILS %: 60-day observation, versus control; for Therapeutic ratio TR: O.D./ILS30
Method in brief: (§1)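 Dosing started 24 h after ip implantation of 1×10^5 L1210 cells into groups of 6 female BDF1 mice, by ip or oral route daily for 5 consecutive days. Survival was followed for 60 days; increase in life span was scored against untreated mice, with therapeutic ratio from optimum dose over ILS30 dose.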

Ehrlich acites carcinoma = experiment: Growth-inhibiting effect against Ehrlich acites carcinoma; format: in vivo, male mice; settings: Mus musculus, Ehrlich, 120 h, 5 days; for response vs control in vivo at 25 mg/kg: 25 mg/kg/day ip; for response vs control in vivo at 100 mg/kg: 100 mg/kg/day ip
Method in brief: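 Activity graded from T/C% of total packed ascites cell volume on day 7 (treated vs untreated): - 100-66, + 65-41, ++ 40-11, +++ 10-0. Groups of 6 male mice bore 1×10^7 i.p.-implanted cells and received compound (1% Nikkol HCO-60) i.p. daily for 5 days from 24 hrs after implantation.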

[2] = Acute toxicity (LD50, Behrens-Karber method); format: in vivo, ICR mice; settings: mouse, in vivo, ip, mortality during 30 days
Description: Test compounds, dissolved or suspended in 0.5% aqueous CMC, were each intraperitoneally administered to ICR mice in a dose of 0.1 ml per 10 g body weight. LD50 (mg/kg) value of each test compound was calculated from the mortality of mice during 30 days by the Behrens-Karber method.

Leukemia L1210 [3] = experiment: Activity against Leukemia L1210, intraperitoneal, increase in life span of mice; format: in vivo, female mice (BDF1 family); settings: for ED (maximum ILS) / ED30: Mus musculus, L1210, ip, ip once a day for 5 successive days; for ED (maximum ILS): daily dosage giving maximum increase of life span, read-out: O.D. (optimum dosage); for ED30: daily dosage increasing average survival days by 30%, read-out: ILS30; for Survivors after 60 days / Max. ILS % / Therapeutic ratio TR: ip; for Survivors after 60 days: 6-membered group; for Max. ILS %: 60-day observation, versus control; for Therapeutic ratio TR: O.D./ILS30
Method in brief: as §1

[4] = Diuretic activity, acute sodium loaded mouse screening test; format: in vivo, male mice; settings: 50 mg/kg oral in 1% saline; for Cl^- / K^+ / Na^+: urine
Description: The diuretic activity of the compounds of this invention was assayed by the diuresis screening test referred to as "acute sodium loaded mouse". This test was carried out by the following method.
The acute sodium loaded mouse screening test was carried out by using a 10-membered group of male mice (each weighing 18 to 24 g). Test compounds were incorporated in 1% saline (NaCl) solution and orally administered in a volume of 10 ml/kg. The mice were placed in metabolic cages. Each treated group consisted of 10-members. Five members were placed in one cage. Tests were conducted by oral administrations of (A) 1% saline (NaCl) solution to the control group and (B) 1% saline (NaCl) solution containing a test compound according to this invention.
The determination was carried out for sodium, potassium, and chlorine in each pooled urine sample. The determination of sodium and potassium was carried out by flame photometer. Chlorine was determined by chloride analysis apparatus. The analytical values of sodium, potassium, and chlorine were shown with an average mg equivalent (m Eq)/Kg/5 hours, and the diuretic activity was shown with an average urine volume (ml)/Kg/5 hours.

Compound: CC(C)CO[C@H]1O[C@H](CN(CC2CCCO2)C(=O)N(CCCl)N=O)[C@@H](O)[C@H](O)[C@H]1O (stereo partly drawn) [Compound 23, 3-tetrahydrofurfuryl-3-(isobutyl α-D-glucopyranose-6-yl)-1-(2-chloroethyl)-1-nitrosourea]
- ED (maximum ILS) (Leukemia L1210 [1]): 250 mg/kg
- ED30 (Leukemia L1210 [1]): 8.74 mg/kg
- Survivors after 60 days (Leukemia L1210 [1]): 5/6
- Max. ILS % (Leukemia L1210 [1]): > 625%
- Therapeutic ratio TR (Leukemia L1210 [1]): 28.6
- response vs control in vivo at 25 mg/kg (Ehrlich acites carcinoma; read-out: Activity): 0 to 10%
- response vs control in vivo at 25 mg/kg (Ehrlich acites carcinoma; read-out: T/C %): 0%
- response vs control in vivo at 100 mg/kg (Ehrlich acites carcinoma; read-out: Activity): 0 to 10%
- response vs control in vivo at 100 mg/kg (Ehrlich acites carcinoma; read-out: T/C %): 0%
- LD50 at 720 h [2]: 620 mg/kg
- ED (maximum ILS) (Leukemia L1210 [3]): 200 mg/kg
- ED30 (Leukemia L1210 [3]): 3 mg/kg
- Survivors after 60 days (Leukemia L1210 [3]): 5/6
- Max. ILS % (Leukemia L1210 [3]): > 630%
- Therapeutic ratio TR (Leukemia L1210 [3]): 66.7
- Urine volume [4]: 10.2 ml/kg/5 hrs.
- Cl^- [4]: 0.8 mEq/kg/5 hrs.
- K^+ [4]: 1.0 mEq/kg/5 hrs.
- Na^+ [4]: 0.7 mEq/kg/5 hrs.

Compound: COCCN(C[C@H]1O[C@H](OCC(C)C)[C@@H](O)[C@@H](O)[C@@H]1O)C(=O)N(CCCl)N=O [Compound 135, 3-(2-methoxyethyl)-3-(isobutyl α-D-mannopyranose-6-yl)-1-(2-chloroethyl)-1-nitrosourea]
- ED (maximum ILS) (Leukemia L1210 [1]): 240 mg/kg
- ED30 (Leukemia L1210 [1]): 9.92 mg/kg
- Survivors after 60 days (Leukemia L1210 [1]): 6/6
- Max. ILS % (Leukemia L1210 [1]): > 700%
- Therapeutic ratio TR (Leukemia L1210 [1]): 24.2
- response vs control in vivo at 25 mg/kg (Ehrlich acites carcinoma; read-out: Activity): 0 to 10%
- response vs control in vivo at 25 mg/kg (Ehrlich acites carcinoma; read-out: T/C %): 0%
- response vs control in vivo at 100 mg/kg (Ehrlich acites carcinoma; read-out: Activity): 0 to 10%
- response vs control in vivo at 100 mg/kg (Ehrlich acites carcinoma; read-out: T/C %): 0%
- LD50 at 720 h [2]: 620 mg/kg
- ED (maximum ILS) (Leukemia L1210 [3]): 200 mg/kg
- ED30 (Leukemia L1210 [3]): 2.92 mg/kg
- Survivors after 60 days (Leukemia L1210 [3]): 6/6
- Max. ILS % (Leukemia L1210 [3]): > 700%
- Therapeutic ratio TR (Leukemia L1210 [3]): 68.5
- Urine volume [4]: 9.7 ml/kg/5 hrs.
- Cl^- [4]: 0.8 mEq/kg/5 hrs.
- K^+ [4]: 0.9 mEq/kg/5 hrs.
- Na^+ [4]: 0.7 mEq/kg/5 hrs.

Compound: COCCN(C[C@H]1O[C@H](OC2CCCCC2)[C@H](O)[C@@H](O)[C@@H]1O)C(=O)N(CCCl)N=O [Compound 39, 3-(2-methoxyethyl)-3-(cyclohexyl α-D-glucopyranose-6-yl)-1-(2-chloroethyl)-1-nitrosourea]
- ED (maximum ILS) (Leukemia L1210 [1]): 220 mg/kg
- ED30 (Leukemia L1210 [1]): 7.43 mg/kg
- Survivors after 60 days (Leukemia L1210 [1]): 5/6
- Max. ILS % (Leukemia L1210 [1]): > 635%
- Therapeutic ratio TR (Leukemia L1210 [1]): 29.6
- response vs control in vivo at 25 mg/kg (Ehrlich acites carcinoma; read-out: Activity): 0 to 10%
- response vs control in vivo at 25 mg/kg (Ehrlich acites carcinoma; read-out: T/C %): 0%
- response vs control in vivo at 100 mg/kg (Ehrlich acites carcinoma; read-out: Activity): 0 to 10%
- response vs control in vivo at 100 mg/kg (Ehrlich acites carcinoma; read-out: T/C %): 0%
- LD50 at 720 h [2]: 510 mg/kg
- ED (maximum ILS) (Leukemia L1210 [3]): 170 mg/kg
- ED30 (Leukemia L1210 [3]): 2.47 mg/kg
- Survivors after 60 days (Leukemia L1210 [3]): 6/6
- Max. ILS % (Leukemia L1210 [3]): > 700%
- Therapeutic ratio TR (Leukemia L1210 [3]): 68.8
- Urine volume [4]: 9.2 ml/kg/5 hrs.
- Cl^- [4]: 0.7 mEq/kg/5 hrs.
- K^+ [4]: 0.8 mEq/kg/5 hrs.
- Na^+ [4]: 0.6 mEq/kg/5 hrs.

Compound: CC(C)(C)N(C[C@H]1O[C@H](OCCN2CCOCC2)[C@H](O)[C@@H](O)[C@@H]1O)C(=O)N(CCCl)N=O [Compound 181, 3-tert-butyl-3-(2-morpholinoethyl α-D-glucopyranose-6-yl)-1-(2-chloroethyl)-1-nitrosourea]
- response vs control in vivo at 25 mg/kg (Ehrlich acites carcinoma; read-out: Activity): 0 to 10%
- response vs control in vivo at 25 mg/kg (Ehrlich acites carcinoma; read-out: T/C %): 0%
- response vs control in vivo at 100 mg/kg (Ehrlich acites carcinoma; read-out: Activity): 0 to 10%
- response vs control in vivo at 100 mg/kg (Ehrlich acites carcinoma; read-out: T/C %): 0%
- LD50 at 720 h [2]: 530 mg/kg
- ED (maximum ILS) (Leukemia L1210 [3]): 160 mg/kg
- ED30 (Leukemia L1210 [3]): 2.89 mg/kg
- Survivors after 60 days (Leukemia L1210 [3]): 6/6
- Max. ILS % (Leukemia L1210 [3]): > 700%
- Therapeutic ratio TR (Leukemia L1210 [3]): 55.4
- Urine volume [4]: 13.1 ml/kg/5 hrs.
- Cl^- [4]: 1.3 mEq/kg/5 hrs.
- K^+ [4]: 1.2 mEq/kg/5 hrs.
- Na^+ [4]: 1.1 mEq/kg/5 hrs.

Compound: CCCCO[C@H]1O[C@H](CO)[C@@H](O)[C@H](O)[C@H]1N(CCCOC)C(=O)N(CCCl)N=O [Compound 57, 3-(3-methoxy-n-propyl)-3-(n-butyl α-D-glucopyranose-2-yl)-1-(2-chloroethyl)-1-nitrosourea]
- response vs control in vivo at 25 mg/kg (Ehrlich acites carcinoma; read-out: Activity): 0 to 10%
- response vs control in vivo at 25 mg/kg (Ehrlich acites carcinoma; read-out: T/C %): 0%
- response vs control in vivo at 100 mg/kg (Ehrlich acites carcinoma; read-out: Activity): 0 to 10%
- response vs control in vivo at 100 mg/kg (Ehrlich acites carcinoma; read-out: T/C %): 0%
- LD50 at 720 h [2]: 570 mg/kg
- ED (maximum ILS) (Leukemia L1210 [3]): 190 mg/kg
- ED30 (Leukemia L1210 [3]): 5.5 mg/kg
- Survivors after 60 days (Leukemia L1210 [3]): 3/6
- Max. ILS % (Leukemia L1210 [3]): > 355%
- Therapeutic ratio TR (Leukemia L1210 [3]): 34.5
- Urine volume [4]: 9.7 ml/kg/5 hrs.
- Cl^- [4]: 0.8 mEq/kg/5 hrs.
- K^+ [4]: 0.9 mEq/kg/5 hrs.
- Na^+ [4]: 0.7 mEq/kg/5 hrs.

Compound: CCCCO[C@H]1O[C@H](CN(CCCOC)C(=O)N(CCCl)N=O)[C@@H](O)[C@H](O)[C@H]1O [Compound 10]
- response vs control in vivo at 25 mg/kg (Ehrlich acites carcinoma; read-out: Activity): 0 to 10%
- response vs control in vivo at 25 mg/kg (Ehrlich acites carcinoma; read-out: T/C %): 0%
- response vs control in vivo at 100 mg/kg (Ehrlich acites carcinoma; read-out: Activity): 0 to 10%
- response vs control in vivo at 100 mg/kg (Ehrlich acites carcinoma; read-out: T/C %): 0%
- LD50 at 720 h [2]: 480 mg/kg
- ED (maximum ILS) (Leukemia L1210 [3]): 150 mg/kg
- ED30 (Leukemia L1210 [3]): 3.1 mg/kg
- Survivors after 60 days (Leukemia L1210 [3]): 6/6
- Max. ILS % (Leukemia L1210 [3]): > 700%
- Therapeutic ratio TR (Leukemia L1210 [3]): 48.4
- Urine volume [4]: 8.7 ml/kg/5 hrs.
- Cl^- [4]: 0.6 mEq/kg/5 hrs.
- K^+ [4]: 0.8 mEq/kg/5 hrs.
- Na^+ [4]: 0.5 mEq/kg/5 hrs.

Compound: COC(C)CO[C@H]1O[C@H](CN(CC2CCCO2)C(=O)N(CCCl)N=O)[C@H](O)[C@H](O)[C@H]1O (stereo partly drawn) [Compound 117, 3-tetrahydrofurfuryl-3-(2-methoxy-n-propyl α-D-galactopyranose-6-yl)-1-(2-chloroethyl)-1-nitrosourea]
- response vs control in vivo at 25 mg/kg (Ehrlich acites carcinoma; read-out: Activity): 0 to 10%
- response vs control in vivo at 25 mg/kg (Ehrlich acites carcinoma; read-out: T/C %): 0%
- response vs control in vivo at 100 mg/kg (Ehrlich acites carcinoma; read-out: Activity): 0 to 10%
- response vs control in vivo at 100 mg/kg (Ehrlich acites carcinoma; read-out: T/C %): 0%
- LD50 at 720 h [2]: 610 mg/kg
- ED (maximum ILS) (Leukemia L1210 [3]): 200 mg/kg
- ED30 (Leukemia L1210 [3]): 3.3 mg/kg
- Survivors after 60 days (Leukemia L1210 [3]): 6/6
- Max. ILS % (Leukemia L1210 [3]): > 700%
- Therapeutic ratio TR (Leukemia L1210 [3]): 60.6
- Urine volume [4]: 8.4 ml/kg/5 hrs.
- Cl^- [4]: 0.7 mEq/kg/5 hrs.
- K^+ [4]: 0.9 mEq/kg/5 hrs.
- Na^+ [4]: 0.5 mEq/kg/5 hrs.
